Tested on: 217524-143-R1-J4-PDC spheroids with HUVEC/MSC, viability
Experiment: Anticancer human tumor 217524-143-R1-J4-PDC patient-derived pancreatic carcinoma cell line growth inhibition [CLK]
Conditions: for IC50: curve of first compound; for viability, T/C: stronger effect = lower value
In short: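 Multi-cell-type spheroids combined patient-derived tumor cells with HUVEC endothelial cells and human mesenchymal stem cells. Paired agents were dosed in half-log steps down from about clinical Cmax, or from 10 microM where Cmax was unknown.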
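Note: spheroids exposed to agents for seven days before reading.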
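Throughout, for viability, T/C: 100% = DMSO vehicle control viability.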

## C=CC(=O)Nc1cc(Nc2nccc(-c3cn(C)c4ccccc34)n2)c(OC)cc1N(C)CCN(C)C + CN1CCN(c2cc(C(=O)Nc3cc4cc(-c5cnn(C)c5)ccc4cn3)ccn2)CC1
Second compound 0.0316 µM
  IC50: 127 nM
Second compound 0.1 µM
  IC50: 32.5 nM
Second compound 0.316 µM
  IC50: < 0.949 nM
Second compound 1 µM
  IC50: < 0.949 nM
Second compound 3.16 µM
  IC50: < 0.949 nM
Second compound 10 µM
  IC50: < 0.949 nM
Second compound 0.0316 µM, first compound 0.000949 µM
  viability, T/C: 79.8%
Second compound 0.0316 µM, first compound 0.003 µM
  viability, T/C: 63.2%
Second compound 0.0316 µM, first compound 0.00949 µM
  viability, T/C: 82.2%
Second compound 0.0316 µM, first compound 0.03 µM
  viability, T/C: 72.5%
Second compound 0.0316 µM, first compound 0.0949 µM
  viability, T/C: 56%
Second compound 0.0316 µM, first compound 0.3 µM
  viability, T/C: 32.5%
Second compound 0.1 µM, first compound 0.000949 µM
  viability, T/C: 57.5%
Second compound 0.1 µM, first compound 0.003 µM
  viability, T/C: 61.2%
Second compound 0.1 µM, first compound 0.00949 µM
  viability, T/C: 61.9%
Second compound 0.1 µM, first compound 0.03 µM
  viability, T/C: 47.2%
Second compound 0.1 µM, first compound 0.0949 µM
  viability, T/C: 39.5%
Second compound 0.1 µM, first compound 0.3 µM
  viability, T/C: 24.8%
Second compound 0.316 µM, first compound 0.000949 µM
  viability, T/C: 25.4%
Second compound 0.316 µM, first compound 0.003 µM
  viability, T/C: 27.2%
Second compound 0.316 µM, first compound 0.00949 µM
  viability, T/C: 22.9%
Second compound 0.316 µM, first compound 0.03 µM
  viability, T/C: 22.5%
Second compound 0.316 µM, first compound 0.0949 µM
  viability, T/C: 19%
Second compound 0.316 µM, first compound 0.3 µM
  viability, T/C: 12.6%
Second compound 1 µM, first compound 0.000949 µM
  viability, T/C: 2.17%
Second compound 1 µM, first compound 0.003 µM
  viability, T/C: 2.28%
Second compound 1 µM, first compound 0.00949 µM
  viability, T/C: 1.87%
Second compound 1 µM, first compound 0.03 µM
  viability, T/C: 1.61%
Second compound 1 µM, first compound 0.0949 µM
  viability, T/C: 1.64%
Second compound 1 µM, first compound 0.3 µM
  viability, T/C: 0.9%
Second compound 3.16 µM, first compound 0.000949 µM
  viability, T/C: 1.11%
Second compound 3.16 µM, first compound 0.003 µM
  viability, T/C: 0.99%
Second compound 3.16 µM, first compound 0.00949 µM
  viability, T/C: 1.06%
Second compound 3.16 µM, first compound 0.03 µM
  viability, T/C: 0.81%
Second compound 3.16 µM, first compound 0.0949 µM
  viability, T/C: 1.04%
Second compound 3.16 µM, first compound 0.3 µM
  viability, T/C: 0.71%
Second compound 10 µM, first compound 0.000949 µM
  viability, T/C: 0.22%
Second compound 10 µM, first compound 0.003 µM
  viability, T/C: 0.25%
Second compound 10 µM, first compound 0.00949 µM
  viability, T/C: 0.25%
Second compound 10 µM, first compound 0.03 µM
  viability, T/C: 0.26%
Second compound 10 µM, first compound 0.0949 µM
  viability, T/C: 0.27%
Second compound 10 µM, first compound 0.3 µM
  viability, T/C: 0.25%

— PubChem BioAssay AID2060624 (Molecular Pharmacology Branch, DTP, NCI, 2025)
